In patent US9718828B2 (MERCK SHARP & DOHME CORP., priority 2011, dated 2017) one finds EC50 data, which are given here for 26 compounds.

Where a name gives a salt, the structure may show the parent alone.

Btk enzyme (His-Btk), sequence (Q06187 whole entry): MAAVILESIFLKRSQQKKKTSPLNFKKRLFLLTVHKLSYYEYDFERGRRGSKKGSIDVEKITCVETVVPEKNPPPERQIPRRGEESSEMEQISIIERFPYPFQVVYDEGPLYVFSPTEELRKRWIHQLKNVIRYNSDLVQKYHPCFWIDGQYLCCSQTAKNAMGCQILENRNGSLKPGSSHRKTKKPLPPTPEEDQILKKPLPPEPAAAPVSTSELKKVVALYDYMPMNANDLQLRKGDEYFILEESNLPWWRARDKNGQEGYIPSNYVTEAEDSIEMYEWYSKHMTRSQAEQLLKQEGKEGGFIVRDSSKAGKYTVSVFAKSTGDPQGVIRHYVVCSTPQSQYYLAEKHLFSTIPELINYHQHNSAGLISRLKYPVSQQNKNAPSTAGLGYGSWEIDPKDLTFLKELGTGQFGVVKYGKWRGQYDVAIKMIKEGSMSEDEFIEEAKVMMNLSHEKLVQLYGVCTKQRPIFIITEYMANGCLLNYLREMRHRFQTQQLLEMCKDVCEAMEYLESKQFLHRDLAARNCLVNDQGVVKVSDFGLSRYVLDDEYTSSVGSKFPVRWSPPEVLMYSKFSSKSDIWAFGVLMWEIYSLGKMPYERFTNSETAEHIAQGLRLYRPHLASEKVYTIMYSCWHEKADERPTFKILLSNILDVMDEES

One test addresses Btk enzyme (His-Btk) (Homo sapiens (Human), UniProt Q06187). In words: Btk enzyme activity, IMAP fluorescence polarization assay (Assay Method A).
Settings: not given
A general note: In fluorescence polarisation assays a small probe gives low polarisation when free and higher when bound to something large.
In the case of `CC1(C(=O)N2CC[C@@H](c3nc(-c4ccc(C(=O)Nc5ccccn5)cc4)c4c(N)nccn34)C2)COC1` [Example 126, (R)-4-(8-amino-3-(1-(3-methyloxetane-3-carbonyl)pyrrolidin-3-yl)imidazo[1,5-a]pyrazin-1-yl)-N-(pyridin-2-yl)benzamide, TFA salt], the EC50 lay in the range of 100 to 1000 nM.
The compound `COCCC(=O)N1CC[C@@H](c2nc(-c3ccc(C(=O)Nc4ccccn4)cc3)c3c(N)nccn23)C1` [Example 125, (R)-4-(8-amino-3-(1-(3-methoxypropanoyl)pyrrolidin-3-yl)imidazo[1,5-a]pyrazin-1-yl)-N-(pyridin-2-yl)benzamide, TFA salt] registered an EC50 of 100 to 1000 nM.
The same measure, in the same setting: the result for `Nc1nccn2c([C@@H]3CCCN(C(=O)C4CSC4)C3)nc(-c3ccc(C(=O)Nc4cc(C(F)(F)F)ccn4)cc3)c12` [Example 86, (R)-4-(8-amino-3-(1-(thietane-3-carbonyl)piperidin-3-yl)imidazo[1,5-a]pyrazin-1-yl)-N-(4-(trifluoromethyl)pyridin-2-yl)benzarnide] reads less than 10 nM; that for `Nc1nccn2c(C3CC4CCC3N4C(=O)C3CCCO3)nc(-c3ccc(C(=O)Nc4ccccn4)cc3)c12` (centres unmarked) [Example 146, 4-(8-amino-3-(7-(tetrahydrofuran-2-carbonyl)-7-azabicyclo[2.2.1]heptan-2-yl)imidazo[1,5-a]pyrazin-1-yl)-N-(pyridin-2-yl)benzamide], 10 to 100 nM.
The same measure, in the same setting: the result for `C[C@@H]1CC[C@@H](c2nc(-c3ccc(C(=O)Nc4cc(C(F)(F)F)ccn4)cc3)c3c(N)nccn23)CN1C(=O)C1CC1` (relative stereo) [Example 188, 4-(8-amino-3-((trans)-1-(cyclopropanecarbonyl)-6-methylpiperidin-3-yl)imidazo[1,5-a]pyrazin-1-yl)-N-(4-(trifluoromethyl)pyridin-2-yl)benzamide, TFA salt] reads 10 to 100 nM.
Same read-out and setting: to `CC(CNC(=O)C1(C)COC1)c1nc(-c2ccc(C(=O)Nc3cc(C(F)(F)F)ccn3)cc2)c2c(N)nccn12` (centres unmarked) [Example 131, N-(2-(8-amino-1-(4-(4-(trifluoromethyl)pyridin-2-ylcarbamoyl)phenyl)imidazo[1,5-a]pyrazin-3-yl)propyl)-3-methyloxetane-3-carboxamide] belongs less than 10 nM.
`CC1(C(=O)N2CCC[C@@H](c3nc(-c4ccc(C(=O)Nc5cc(C(F)(F)F)ccn5)cc4)c4c(N)ncc(-c5ccccc5)n34)C2)COC1` [Example 321, (R)-4-(8-amino-3-(1-(3-methyloxetane-3-carbonyl)piperidin-3-yl)-5-phenylimidazo[1,5-a]pyrazin-1-yl)-N-(4-(trifluoromethyl)pyridin-2-yl)benzamide]: the EC50 was in the range of 10 to 100 nM.
With `Nc1nccn2c([C@@H]3CCCN(CCc4ccccc4)C3)nc(-c3ccc(C(=O)Nc4ccccn4)cc3)c12` [Example 134, (R)-4-(8-amino-3-(1-phenethylpiperidin-3-yl)imidazo[1,5-a]pyrazin-1-yl)-N-(pyridin-2-yl)benzamide, TFA salt], the EC50 lay within 10 to 100 nM.
Still for that read-out and setting: the result for `CSCCC(=O)N1C[C@H](c2nc(-c3ccc(C(=O)Nc4cc(C(F)(F)F)ccn4)cc3)c3c(N)nccn23)CC[C@H]1C` (relative stereo) [Example 187, 4-(8-amino-3-((trans)-6-methyl-1-(3-(methylthio)propanoyl)piperidin-3-yl)imidazo[1,5-a]pyrazin-1-yl)-N-(4-(trifluoromethyl)pyridin-2-yl)benzamide, TFA salt] reads 10 to 100 nM; that for `CC(C)C1CC(C(=O)N2CCC[C@@H](c3nc(-c4ccc(C(=O)Nc5cc(C(F)(F)F)ccn5)cc4)c4c(N)nccn34)C2)C1` (stereo partly drawn) [Example 89, (R)-4-(8-amino-3-(1-(3-isopropylcyclobutanecarbonyl)piperidin-3-yl)imidazo[1,5-a]pyrazin-1-yl)-N-(4-(trifluoromethyl)pyridin-2-yl)benzamide], less than 10 nM.
Consider `N#Cc1ccnc(NC(=O)c2ccc(-c3nc(C4CCOCC4)n4ccnc(N)c34)cc2)c1` [Example 26, 4-(8-amino-3-(tetrahydro-2H-pyran-4-yl)imidazo [1,5-a]pyrazin-1-yl)-N-(4-cyanopyridin-2-yl)benzamide], for which the EC50 was in the range of 10 to 100 nM.

The test is the same for the next values; noted with them: read-out: EC50 Btk activity values - Assay Method A; IMAP-FP, 60 min pre-incubation, 5 μM ATP; class 100-1000 is given as ≧100 nM-<1 μM.
For the compound `Nc1nccn2c([C@@H]3CCCN(C(=O)CN4CCOC4=O)C3)nc(-c3ccc(C(=O)Nc4cc(C5CC5)ccn4)cc3)c12` [Example 110, (R)-4-(8-amino-3-(1-(2-(2-oxooxazolidin-3-yl)acetyl)piperidin-3-yl)imidazo[1,5-a]pyrazin-1-yl)-N-(4-cyclopropylpyridin-2-yl)benzamide], the EC50 was less than 10 nM.
Same read-out and setting: the result for `C=Cc1cnc(N)c2c(-c3ccc(C(=O)Nc4cc(C(F)(F)F)ccn4)cc3)nc([C@@H]3CCCN(C(=O)C4(C)COC4)C3)n12` [Example 302, (R)-4-(8-amino-3-(1-(3-methyloxetane-3-carbonyl)piperidin-3-yl)-5-vinylimidazo[1,5-a]pyrazin-1-yl)-N-(4-(trifluoromethyl)pyridin-2-yl)benzamide] reads less than 10 nM; that for `CCOC(=O)N1C[C@H](c2nc(-c3ccc(C(=O)Nc4cc(C5CC5)ccn4)cc3)c3c(N)nccn23)CC[C@@H]1C` (relative stereo) [Example 199, (cis)-ethyl 5-(8-amino-1-(4-(4-cyclopropylpyridin-2-ylcarbamoyl)phenyl)imidazo [1,5-a]pyrazin-3-yl)-2-methylpiperidine-1-carboxylate, TFA salt], less than 10 nM; that for `C[C@H]1CC[C@@H](c2nc(-c3ccc(C(=O)Nc4cc(C(F)(F)F)ccn4)cc3)c3c(N)nccn23)CN1C(=O)C1CC1` (relative stereo) [Example 202, 4-(8-amino-3-((cis)-1-(cyclopropanecarbonyl)-6-methylpiperidin-3-yl)imidazo[1,5-a]pyrazin-1-yl)-N-(4-(trifluoromethyl)pyridin-2-yl)benzamide, TFA salt], less than 10 nM.
On to `CC(CO)(CO)C(=O)N1CCC[C@@H](c2nc(-c3ccc(C(=O)Nc4cc(C(F)(F)F)ccn4)cc3)c3c(N)nccn23)C1` [Example 105, (R)-4-(8-amino-3-(1-(3-hydroxy-2-(hydroxymethyl)-2-methylpropanoyl)piperidin-3 yl)imidazo[1,5-a]pyrazin-1-yl)-N-(4-(trifluoromethyl)pyridin-2-yl)benzamide], for which the EC50 was less than 10 nM.
The same measure, in the same setting: to `COCCC(=O)N1CCC[C@@H](n2nc(-c3ccc(C(=O)Nc4cc(C(F)(F)F)ccn4)cc3)c3c(N)ncnc32)C1` [Example 280, (R)-4-(4-amino-1-(1-(3-methoxypropanoyl)piperidin-3-yl)-1H-pyrazolo[3,4-d]pyrimidin-3-yl)-N-(4-(trifluoromethyl)pyridin-2-yl)benzamide] belongs less than 10 nM.
As to `CC(C)C(=O)N1CCC[C@@H](c2nc(-c3ccc(C(=O)Nc4cc(C#N)ccn4)cc3)c3c(N)nccn23)C1` [Example 100, (R)-4-(8-amino-3-(1-isobutyrylpiperidin-3 yl)imidazo[1,5-a]pyrazin-1-yl)-N-(4-cyanopyridin-2-yl)benzamide], the EC50 is less than 10 nM.
Same read-out and setting: to `Nc1nccn2c1c(-c1ccc(C(=O)Nc3cc(-c4ccccc4)ccn3)cc1)nc2[C@H]1CC[C@H](O)CC1` [Example 20, 4-(8-amino-3-((trans)-4-hydroxycyclohexyl)imidazo[1,5-a]pyrazin-1-yl)-N-(4-phenylpyridin-2-yl)benzamide] belongs less than 10 nM.
Still for that read-out and setting: to `Nc1nccn2c(N3CCCC(C(=O)NC[C@@H]4CCCO4)C3)nc(-c3ccc(C(=O)Nc4cc(C(F)(F)F)ccn4)cc3)c12` (stereo partly drawn) [Example 231, 1-(8-amino-1-(4-(4-(trifluoromethyl)pyridin-2-ylcarbamoyl)phenyl)imidazo[1,5-a]pyrazin-3-yl)-N-(((S)-tetrahydrofuran-2-yl)methyl)piperidine-3-carboxamide, TFA salt] belongs less than 10 nM; to `CC1(C(=O)N[C@H]2CCCN(c3nc(-c4ccc(C(=O)Nc5cc(C(F)(F)F)ccn5)cc4)c4c(N)nccn34)C2)COC1` [Example 218, (S)-N-(1-(8-amino-1-(4-(4-(trifluoromethyl)pyridin-2-ylcarbamoyl)phenyl)imidazo [1,5-a]pyrazin-3-yl)piperidin-3-yl)-3-methyloxetane-3-carboxamide], less than 10 nM.
Still for that read-out and setting: the result for `COCCC(=O)N1C[C@H](c2nc(-c3ccc(C(=O)Nc4cc(C5CC5)ccn4)cc3)c3c(N)nccn23)CC[C@@H]1C` (relative stereo) [Example 183, 4-(8-amino-3-((cis)-1-(3-methoxypropanoyl)-6-methylpiperidin-3-yl)imidazo[1,5-a]pyrazin-1-yl)-N-(4-cyclopropylpyridin-2-yl)benzamide, TFA salt] reads less than 10 nM; that for `CC(C)NC(=O)C1CCCN(c2nc(-c3ccc(C(=O)Nc4cc(C(F)(F)F)ccn4)cc3)c3c(N)nccn23)C1` (centres unmarked) [Example 224, 1-(8-amino-1-(4-(4-(trifluoromethyl)pyridin-2-ylcarbamoyl)phenyl)imidazo[1,5-a]pyrazin-3-yl)-N-isopropylpiperidine-3-carboxamide], less than 10 nM; that for `COCCNC(=O)C1CCCN(c2nc(-c3ccc(C(=O)Nc4cc(C(F)(F)F)ccn4)cc3)c3c(N)nccn23)C1` (centres unmarked) [Example 232, 1-(8-amino-1-(4-(4-(trifluoromethyl)pyridin-2-ylcarbamoyl)phenyl)imidazo[1,5-a]pyrazin-3-yl)-N-(2-methoxyethyl)piperidine-3-carboxamide, TFA salt], less than 10 nM.
As for `Nc1nccn2c(N3CCCC(C(=O)NCC4CC4)C3)nc(-c3ccc(C(=O)Nc4cc(C(F)(F)F)ccn4)cc3)c12` (centres unmarked) [Example 233, 1-(8-amino-1-(4-(4-(trifluoromethyl)pyridin-2-ylcarbamoyl)phenyl)imidazo[1,5-a]pyrazin-3-yl)-N-(cyclopropylmethyl)piperidine-3-carboxamide, TFA salt], the EC50 is less than 10 nM.
Still for that read-out and setting: to `CCCc1ccnc(NC(=O)c2ccc(-c3nc(N(CC)CC)n4ccnc(N)c34)cc2)c1` [Example 214, 4-(8-amino-3-(diethylamino)imidazo[1,5-a]pyrazin-1-yl)-N-(4-propylpyridin-2-yl)benzamide] belongs less than 10 nM.

What is called EC50 is the concentration needed to bring the measured effect to its halfway point.
